Results: ChEMBL document CHEMBL1124890 (J Med Chem, 1990)
Numbered stars: 1 amine (or outer) side, 2 acyl side, 3 side chain; on linkers, the order of the positions; unused ones are H or OH. Square brackets hold non-standard residues; d marks the D form. Peptide text beside a SMILES is read from it. X6 = CN(C)C[C@H]1C=NN([*:1])[C@H](C(=O)[*:2])C1; X5 = O=C1CC[C@@H](C(=O)[*:2])N([*:1])N1; dPiz(1,6-dehydro) = O=C(O)[C@H]1CCC=NN1; X2 = CN1CCC[C@@H](C(=O)[*:2])N1[*:1]; X1 = CN1CCC[C@H](C(=O)[*:2])N1[*:1]; X7 = O=C([C@@H]1C=CC=NN1[*:1])[*:2]; X4 = O=C([C@@H]1CCCNN1[*:1])[*:2]; X3 = O=C([C@H]1CCCNN1[*:1])[*:2]; dNMeF = CN[C@H](Cc1ccccc1)C(=O)O

Columns and labels:
Oxytocin receptor = biological target: T1, Oxytocin receptor (Rattus norvegicus, UniProt P70536); assay: Binding affinity against oxytocin receptor in rat uterus
T1 sequence (P70536 whole entry): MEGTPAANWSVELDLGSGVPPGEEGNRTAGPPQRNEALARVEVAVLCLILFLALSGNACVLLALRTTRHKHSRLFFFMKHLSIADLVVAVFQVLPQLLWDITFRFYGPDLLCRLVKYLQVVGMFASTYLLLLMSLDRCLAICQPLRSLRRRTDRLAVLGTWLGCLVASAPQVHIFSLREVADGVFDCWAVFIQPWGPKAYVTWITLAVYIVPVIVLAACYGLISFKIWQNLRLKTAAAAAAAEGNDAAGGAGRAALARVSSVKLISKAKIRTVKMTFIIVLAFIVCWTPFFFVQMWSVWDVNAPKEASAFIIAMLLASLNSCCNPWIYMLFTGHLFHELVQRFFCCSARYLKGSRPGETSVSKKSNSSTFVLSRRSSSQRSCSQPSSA

Vasopressin V2 receptor = Vasopressin V2 receptor (Rattus norvegicus, UniProt Q00788); assay: Binding affinity against Vasopressin receptor in rat kidney medulla
Vasopressin V2 receptor, sequence (Q00788 whole entry): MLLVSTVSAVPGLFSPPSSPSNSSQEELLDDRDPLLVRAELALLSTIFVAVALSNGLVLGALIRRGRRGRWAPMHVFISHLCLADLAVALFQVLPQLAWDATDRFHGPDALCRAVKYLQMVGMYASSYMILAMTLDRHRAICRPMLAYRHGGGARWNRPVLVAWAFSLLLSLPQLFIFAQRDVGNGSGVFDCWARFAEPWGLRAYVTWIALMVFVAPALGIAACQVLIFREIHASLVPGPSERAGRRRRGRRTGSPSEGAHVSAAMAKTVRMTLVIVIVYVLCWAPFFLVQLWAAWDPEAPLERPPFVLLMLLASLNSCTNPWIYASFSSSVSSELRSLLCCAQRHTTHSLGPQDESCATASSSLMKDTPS

Row | Structure (SMILES) | Ki (Oxytocin receptor) [nM] | Ki (Vasopressin V2 receptor) [µM]
1 | CC[C@H](C)[C@@H]1NC[C@@H](Cc2ccccc2)NC(=O)[C@@H]2CCCN2C(=O)[C@@H](Cc2ccccc2)N(C)C(=O)[C@@H]2CCC=NN2C(=O)[C@H]2CCC=NN2C1=O | > 30000 | 30
2 | CC[C@H](C)[C@@H]1NC(=O)[C@@H](Cc2ccccc2)NC(=O)[C@@H]2CCCN2C(=O)[C@@H](Cc2ccccc2)N(C)C(=O)[C@@H]2C[C@@H](CN(C)C)C=NN2C(=O)[C@H]2CCC=NN2C1=O (cyclo(I[dPiz(1,6-dehydro)][X6][dNMeF]P[dF])) | 3.4 | 1.1
3 | CC[C@H](C)[C@H]1C(=O)N2NCCC[C@@H]2C(=O)N2NCCC[C@H]2C(=O)N(C)[C@H](Cc2ccccc2)C(=O)N2CCC[C@H]2C(=O)N[C@H](Cc2ccccc2)C(=O)N1O | 150 | 3.4
4 | CC[C@H](C)[C@@H]1NC(=O)[C@@H](Cc2ccccc2)NC(=O)[C@@H]2CCCN2C(=O)[C@@H](Cc2ccccc2)N(C)C(=O)[C@@H]2C=CC=NN2C(=O)[C@H]2CCC=NN2C1=O (cyclo(I[dPiz(1,6-dehydro)][X7][dNMeF]P[dF])) | 8.1 | 0.58

More lines, in order of falling Ki (Oxytocin receptor), values ahead:

Row | Ki (Oxytocin receptor) [nM] | Ki (Vasopressin V2 receptor) [µM] | Structure (SMILES)
5 | 2500 | 3.1 | CC[C@H](C)[C@@H]1NC(=O)[C@@H](Cc2ccccc2)NC(=O)[C@@H]2CCCN2C(=O)[C@@H](Cc2ccccc2)N(C)C(=O)[C@@H]2CCCN(C)N2C(=O)[C@H]2CCCN(C)N2C1=O (cyclo(I[X1][X2][dNMeF]P[dF]))
6 | 89 | 7.8 | CC[C@H](C)[C@@H]1NC(=O)[C@@H](Cc2ccccc2)NC(=O)[C@@H]2CCCN2C(=O)[C@@H](Cc2ccccc2)N(C)C(=O)[C@@H]2CCC(=O)NN2C(=O)[C@H]2CCCNN2C1=O (cyclo(I[X3][X5][dNMeF]P[dF]))
7 | 30 | 1.5 | CC[C@H](C)[C@@H]1NC(=O)[C@@H](Cc2ccccc2)NC(=O)[C@@H]2CCCN2C(=O)[C@@H](Cc2ccccc2)N(C)C(=O)[C@@H]2CCCNN2C(=O)[C@H]2CCCNN2C1=O (cyclo([X3][X4][dNMeF]P[dF]I))
8 | 9.6 | 6.8 | CC[C@H](C)[C@@H]1NC(=O)[C@@H](Cc2ccccc2)NC(=O)[C@@H]2CCCN2C(=O)[C@@H](Cc2ccccc2)N(C)C(=O)[C@@H]2CCC(=O)NN2C(=O)[C@H]2CCC=NN2C1=O (cyclo(I[dPiz(1,6-dehydro)][X5][dNMeF]P[dF]))
9 | 1.1 | 0.07 | CC[C@@H](C)[C@@H]1/N=C(\S)[C@@H](Cc2ccccc2)NC(=O)[C@@H]2CCCN2C(=O)[C@@H](Cc2ccccc2)N(C)C(=O)[C@@H]2CCC=NN2C(=O)[C@H]2CCC=NN2C1=O
